Source: patent US20050096370A1, “Method for inhibiting tumor angiogenesis and tumor growth” (Bizbiotech Co., Ltd., priority 2003, published 2005)

Key:
[1] = tested on: natural killer (NK) cell activity; experiment: NK cell activity of splenic lymphocytes incubated with YC-1 in vitro (51Cr release from YAC-1 cells); assay type: cell-based, nude mice; details: 24 hours
Protocol: The lymphocytes were then incubated at the indicated effectontarget cell (E:T) ratios with ^51Cr-labeled YAC-1 cells (1×10^4). After 4 hours, the amount of radioactivity in the culture supernatants was measured with a gamma counter. […] Splenic lymphocytes were then isolated and tested for NK cell activity. The result is expressed as the mean of four separate experiments with 95% confidence intervals.
The quality of the extracted RNAs was verified by identifying the 18S ribosomal RNA (rRNA) on a 1% denaturing agarose gel. VEGF, aldolase A and enolase 1 mRNA levels were also lower in YC-1-treated tumors than in vehicle-treated tumors one experiment. Results are expressed as the mean and 95% confidence intervals of 4 separate experiments.
Splenic lymphocytes were isolated from each mouse and tested immediately for NK cell activity. The spontaneous release of ^51Cr from YAC-1 cells was usually lower than 10% of the total ^51Cr loaded. NK cell activity was calculated as follows: {(experimental release−spontaneous release)/(total release−spontaneous release)}×100. Each assay was repeated three times and the average value is the result from one experiment. Results are expressed as the mean and 95% confidence intervals of 4 separate experiments.

[2] = tested on: HIF-1-regulated genes (VEGF, aldolase A, and enolase 1); experiment: semi-quantitative RT-PCR of HIF-1α and HIF-1-regulated gene mRNA in Hep3B cells; assay type: cell-based, human; details: 16 hours
Protocol: FIG. 2 is an autoradiograph showing mRNA levels of VEGF, aldolase A, enolase 1, HIF-1α, and β-actin.
Immunoblotting was used to detect HIF-1 protein in cultured cells, as described (Chun et al., Biochem Pharmacol 2001 61:947-954). Cells were centrifuged at 3000 rpm for 5 minutes at VC and then washed twice with ice-cold phosphate buffered saline (PBS). Cells were then resuspended in ten packed cell volumes of alysis buffer consisting of 10 mM Tris, pH 7.4, 130 mM NaCl, 2 mM EDTA, 1% Nonidet P-40, 0.5 mM dithiothreitol, and 0.5 mM phenylmethylsulfonyl fluoride. […] To quantify mRNAs for HIF-1α and HIF-1-regulated genes, we performed a highly sensitive, semi-quantitative reverse transcription-polymerase chain reaction (RT PCR), as described previously (Chun et al., J Cell Sci 2001 114:4051-4061). […] P-actin mRNA was measured as a PCR control. […] To assess whether the VEGF mRNA levels affected levels of VEGF protein secreted into the medium, we measured VEGF protein levels in Hep3B cell-conditioned medium. […] VEGF levels in the conditioned media were quantified by using the Quantikine human VEGF Immunoassay kit (R&D Systems, Minneapolis, Minn.) according to the manufacturer's recommended protocol. The VEGF concentrations were quantified by comparison with a series of VEGF standard samples included in the assay kit. […]

Structure (SMILES): OCc1ccc(-c2nn(Cc3ccccc3)c3ccccc23)o1 [YC-1, 3-(5′-hydroxymethyl-2′-furyl)-1-benzylindazole]
- cytolytic activity against YAC-1 cells versus lymphocytes incubated without YC-1 [1]: comparable
- HIF-1α mRNA level [2]: relatively unchanged
- expression of HIF-1-regulated genes (VEGF, aldolase A, and enolase 1) mRNA ([2]; hypoxic): dose dependently decreased
